Assay results: patent US9187506B2 (Bristol-Meyers Squibb Company, priority 2014, dated 2015)
Read-outs that look alike come from different tables or passages of the source.

How the values were obtained:
[1] = biological target: T1, NR2B-subtype NMDA receptors (Rattus norvegicus, UniProt P35439+Q00960); assay: Radioligand binding assay (3H Ro 25-6981 competition, rat forebrain membranes); settings: 3H Ro 25-6981 4 nM
T1 construct: For membrane preparation, rat forebrains were thawed on ice; from tissue; host or cells: rat forebrain membrane homogenate (Sprague Dawley, Harlan)
T1 sequence (Q00960 27-1482, other chains not shown): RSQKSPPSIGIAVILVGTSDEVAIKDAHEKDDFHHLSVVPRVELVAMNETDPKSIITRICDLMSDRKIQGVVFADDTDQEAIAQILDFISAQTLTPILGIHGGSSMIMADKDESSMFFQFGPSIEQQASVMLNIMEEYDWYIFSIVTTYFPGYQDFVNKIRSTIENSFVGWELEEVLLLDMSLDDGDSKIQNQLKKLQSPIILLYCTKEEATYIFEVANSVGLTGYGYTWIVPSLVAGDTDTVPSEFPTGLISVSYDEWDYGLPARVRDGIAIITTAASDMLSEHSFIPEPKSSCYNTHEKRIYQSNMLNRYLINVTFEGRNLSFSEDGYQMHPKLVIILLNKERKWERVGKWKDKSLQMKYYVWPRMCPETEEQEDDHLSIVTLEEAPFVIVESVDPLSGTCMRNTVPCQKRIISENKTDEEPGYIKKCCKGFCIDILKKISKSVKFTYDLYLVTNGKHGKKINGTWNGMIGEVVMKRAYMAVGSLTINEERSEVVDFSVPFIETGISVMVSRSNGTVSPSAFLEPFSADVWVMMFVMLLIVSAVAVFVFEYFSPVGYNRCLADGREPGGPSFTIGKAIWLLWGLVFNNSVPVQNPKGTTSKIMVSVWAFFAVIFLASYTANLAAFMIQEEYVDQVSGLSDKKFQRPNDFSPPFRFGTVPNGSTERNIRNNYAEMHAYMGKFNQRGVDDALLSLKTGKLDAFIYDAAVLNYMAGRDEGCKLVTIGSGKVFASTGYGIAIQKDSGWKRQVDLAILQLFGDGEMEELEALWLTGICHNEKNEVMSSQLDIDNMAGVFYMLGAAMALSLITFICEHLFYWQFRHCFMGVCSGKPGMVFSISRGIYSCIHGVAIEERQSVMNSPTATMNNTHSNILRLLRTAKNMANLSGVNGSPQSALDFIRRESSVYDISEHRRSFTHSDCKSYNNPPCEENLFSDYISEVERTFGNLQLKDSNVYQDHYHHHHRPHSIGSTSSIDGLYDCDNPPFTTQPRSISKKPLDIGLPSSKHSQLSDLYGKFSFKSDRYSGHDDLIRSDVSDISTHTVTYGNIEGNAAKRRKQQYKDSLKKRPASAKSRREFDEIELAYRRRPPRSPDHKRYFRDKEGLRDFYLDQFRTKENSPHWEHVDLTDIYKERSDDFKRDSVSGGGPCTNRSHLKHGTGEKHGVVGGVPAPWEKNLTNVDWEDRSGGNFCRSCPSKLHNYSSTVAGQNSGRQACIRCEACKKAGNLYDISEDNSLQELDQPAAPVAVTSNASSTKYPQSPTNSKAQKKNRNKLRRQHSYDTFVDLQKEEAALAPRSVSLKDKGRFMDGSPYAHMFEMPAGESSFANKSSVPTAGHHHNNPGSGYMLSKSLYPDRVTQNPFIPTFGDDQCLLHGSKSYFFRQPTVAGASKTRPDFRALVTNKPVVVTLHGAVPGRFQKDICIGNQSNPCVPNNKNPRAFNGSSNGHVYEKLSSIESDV
Protocol: For membrane preparation, rat forebrains were thawed on ice for 20 minutes in homogenization buffer composed of 50 mM KH2PO4 (pH adjusted to 7.4 with KOH), 1 mM EDTA, 0.005% Triton X 100 and protease inhibitor cocktail (Sigma Aldrich). Thawed brains were homogenized using a Dounce homogenizer and centrifuged at 48000×g for 20 min. The pellet was resuspended in cold buffer and homogenized again using a Dounce homogenizer. Subsequently, the homogenate was aliquoted, snap-frozen and stored at −80° C. for not more than 3-4 months.
To perform the competition binding assay, thawed membrane homogenate was added to each well of a 96-well plate (20 μg/well). The experimental compounds were serially diluted in 100% DMSO and added to each row of the assay plate to achieve desired compound concentrations, keeping the DMSO concentration in the assay plate at 1.33% of the final reaction volume. Next, ^3H Ro 25-6981 (4 nM) was added to the assay plate. After incubation for 1 hr at room temperature, the membrane bound radioligand was harvested on to GF/B filter plates (treated with 0.5% PEI for 1 hr at room temperature). The filter plates were dried at 50° C. for 20 mins, incubated with microscint 20 for 10 minutes and finally, the counts were read on TopCount (Perkin Elmer).

[2] = biological target: T2, NR2B-subtype receptors (Mus musculus, UniProt P35438+Q01097); assay: Ex vivo occupancy assay; assay type: in vivo; settings: iv; for receptor occupancy at 3 mg/kg: CD-1 mice, 3 mg/Kg i.v., forebrain harvested 15 minutes post-dosing; for receptor occupancy at 1 mg/kg: mice, 1 mg/Kg i.v., after forced swim test
T2 construct: from tissue; host or cells: forebrain membrane homogenate of dosed CD-1 mice
T2 sequence (Q01097 27-1482, other chains not shown): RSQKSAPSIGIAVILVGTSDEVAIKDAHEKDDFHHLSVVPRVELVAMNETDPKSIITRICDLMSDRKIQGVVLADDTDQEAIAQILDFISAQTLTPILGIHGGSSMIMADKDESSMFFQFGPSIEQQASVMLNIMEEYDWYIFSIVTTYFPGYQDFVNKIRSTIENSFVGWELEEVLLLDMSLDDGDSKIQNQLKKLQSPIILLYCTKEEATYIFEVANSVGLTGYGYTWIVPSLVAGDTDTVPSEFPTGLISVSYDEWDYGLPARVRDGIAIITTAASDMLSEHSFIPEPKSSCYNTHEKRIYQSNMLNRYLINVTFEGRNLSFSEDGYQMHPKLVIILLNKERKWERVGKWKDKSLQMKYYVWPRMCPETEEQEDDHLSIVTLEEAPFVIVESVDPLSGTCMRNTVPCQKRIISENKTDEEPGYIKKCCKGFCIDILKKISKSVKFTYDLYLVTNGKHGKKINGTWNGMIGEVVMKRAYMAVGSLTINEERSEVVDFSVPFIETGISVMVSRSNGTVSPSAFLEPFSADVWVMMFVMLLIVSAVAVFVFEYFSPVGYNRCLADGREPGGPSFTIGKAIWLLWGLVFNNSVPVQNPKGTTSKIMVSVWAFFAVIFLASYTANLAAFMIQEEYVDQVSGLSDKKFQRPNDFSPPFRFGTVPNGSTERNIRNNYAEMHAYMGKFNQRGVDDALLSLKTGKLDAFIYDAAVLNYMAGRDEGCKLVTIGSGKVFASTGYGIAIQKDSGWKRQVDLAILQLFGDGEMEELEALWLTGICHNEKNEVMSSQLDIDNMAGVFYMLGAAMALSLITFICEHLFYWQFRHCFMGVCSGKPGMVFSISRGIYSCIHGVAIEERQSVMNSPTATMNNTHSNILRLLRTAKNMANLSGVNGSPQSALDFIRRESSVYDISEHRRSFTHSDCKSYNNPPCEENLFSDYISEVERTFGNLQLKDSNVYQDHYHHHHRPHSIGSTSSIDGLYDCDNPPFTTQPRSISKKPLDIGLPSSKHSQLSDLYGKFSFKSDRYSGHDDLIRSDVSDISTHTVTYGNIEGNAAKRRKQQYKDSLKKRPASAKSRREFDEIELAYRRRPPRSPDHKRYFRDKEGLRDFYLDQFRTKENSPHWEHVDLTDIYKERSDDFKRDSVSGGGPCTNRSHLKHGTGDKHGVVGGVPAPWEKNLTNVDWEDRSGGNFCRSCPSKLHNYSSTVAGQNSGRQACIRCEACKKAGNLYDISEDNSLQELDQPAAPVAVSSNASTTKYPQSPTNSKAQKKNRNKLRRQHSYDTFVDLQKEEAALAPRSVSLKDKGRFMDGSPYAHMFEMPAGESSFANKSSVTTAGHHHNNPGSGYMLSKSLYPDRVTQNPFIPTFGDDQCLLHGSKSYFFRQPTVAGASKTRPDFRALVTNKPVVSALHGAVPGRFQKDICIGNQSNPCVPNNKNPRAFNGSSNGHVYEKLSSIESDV
Protocol: (§1) 7-9 weeks old male CD-1 mice were dosed intravenously in a vehicle consisting of 10% dimethylacetamide, 40% PEG-400, 30% hydroxypropyl betacyclodextrin, and 30% water with experimental compounds and the forebrains were harvested 15 minutes post-dosing by decapitation. The brain samples were immediately snap-frozen and stored at −80° C. On the following day, the dosed brain samples were thawed on ice for 15-20 minutes followed by homogenization using Polytron for 10 seconds in cold homogenization buffer composed of 50 mM KH2PO4 (pH adjusted to 7.4 with KOH), 1 mM EDTA, 0.005% Triton X 100 and protease inhibitor cocktail (Sigma Aldrich). The crude homogenates were further homogenized using a Dounce homogenizer and the homogenized membrane aliquots from all animals were flash-frozen and stored at −80° C. until further use. The whole homogenization process was performed on ice.
For determining occupancy, the membrane homogenates were first thawed on ice and then needle-homogenized using a 25 gauge needle. The homogenized membrane (6.4 mg/ml) was added to a 96-well plate followed by addition of ^3H Ro 25-6981 (6 nM). The reaction mixture was incubated for 5 minutes on a shaker at 4° C. and then harvested onto GF/B filter plates (treated with 0.5% PEI for 1 hr at room temperature). The filter plates were dried at 50° C. for 20 mins, incubated with microscint 20 for 10 minutes and read on TopCount (Perkin Elmer). Each dose or compound group consisted of 4-5 animals. The control group of animals was dosed with vehicle alone. Membrane from each animal was added in triplicates to the assay plate. Non-specific binding was determined using 10 μM Ro 25-6981 added to the wells containing membrane homogenates from vehicle-dosed animals. Specific counts/minute was converted to % occupancy at each dose of a compound for each animal using the following equation:
(§2) [formula] […] Drug levels were determined by mass spectroscopy in the usual manner. Drug levels in the blood plasma were 1106 nM in at this dose, and drug levels in the homogonized brain tissue were 1984 nM. […] Drug levels in the blood plasma were 1800 nM in at this dose, and drug levels in the homogonized brain tissue were 2200 nM. […] Drug levels in the blood plasma were 570 nM at this dose, and drug levels in the homogonized brain tissue were 900 nM.

[3] = Drug levels in blood plasma and brain tissue by mass spectroscopy (ex vivo occupancy study); settings: male, CD-1, mouse, iv, mice, 3 mg/Kg i.v., 15 minutes post-dosing
Protocol: as §1, §2

[4] = biological target: T3, hERG channels (Homo sapiens, UniProt Q12809); assay: hERG electrophysiology assay (patch clamp, HEK 293 cells); assay type: cell-based; settings: HEK 293 cells stably expressing hERG, patch clamp tail current
T3 construct: expressed in transfected cells
T3 sequence (Q12809 whole entry): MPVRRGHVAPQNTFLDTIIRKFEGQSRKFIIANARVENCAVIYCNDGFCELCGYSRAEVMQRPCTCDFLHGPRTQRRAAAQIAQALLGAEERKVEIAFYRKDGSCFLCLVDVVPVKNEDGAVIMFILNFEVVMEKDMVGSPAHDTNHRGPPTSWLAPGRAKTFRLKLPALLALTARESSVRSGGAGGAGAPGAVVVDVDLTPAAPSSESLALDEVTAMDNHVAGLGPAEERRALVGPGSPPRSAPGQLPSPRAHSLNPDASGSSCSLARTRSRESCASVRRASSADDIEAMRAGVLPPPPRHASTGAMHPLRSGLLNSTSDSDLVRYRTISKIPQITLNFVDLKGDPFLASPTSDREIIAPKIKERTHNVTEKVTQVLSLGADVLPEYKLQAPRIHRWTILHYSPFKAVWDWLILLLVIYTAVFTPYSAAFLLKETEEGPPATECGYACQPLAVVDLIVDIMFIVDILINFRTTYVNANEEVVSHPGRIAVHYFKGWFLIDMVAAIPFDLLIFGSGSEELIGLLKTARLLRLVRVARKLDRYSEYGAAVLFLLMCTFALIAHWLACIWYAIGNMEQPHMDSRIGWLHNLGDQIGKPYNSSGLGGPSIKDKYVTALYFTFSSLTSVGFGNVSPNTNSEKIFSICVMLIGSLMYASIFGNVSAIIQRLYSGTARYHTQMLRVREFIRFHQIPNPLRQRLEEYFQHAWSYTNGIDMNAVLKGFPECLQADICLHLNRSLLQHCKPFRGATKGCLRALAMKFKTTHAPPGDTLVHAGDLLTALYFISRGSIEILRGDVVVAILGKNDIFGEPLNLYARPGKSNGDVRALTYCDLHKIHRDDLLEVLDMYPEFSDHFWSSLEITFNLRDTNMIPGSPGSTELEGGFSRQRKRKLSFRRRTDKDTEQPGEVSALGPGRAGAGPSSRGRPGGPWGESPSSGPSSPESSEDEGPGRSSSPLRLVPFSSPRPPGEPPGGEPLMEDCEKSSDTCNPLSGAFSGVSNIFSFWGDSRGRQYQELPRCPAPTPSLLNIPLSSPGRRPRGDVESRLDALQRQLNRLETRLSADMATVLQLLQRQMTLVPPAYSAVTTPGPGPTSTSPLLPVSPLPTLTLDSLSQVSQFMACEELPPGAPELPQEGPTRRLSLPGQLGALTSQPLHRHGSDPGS
Protocol: The experimental compounds were assessed for hERG activity on HEK 293 cells stably expressing hERG channels using patch clamp technique. Coverslips plated with hERG expressing cells were placed in the experimental chamber and were perfused with a solution composed of (in mM): 140 NaCl, 4 KCl, 1.8 CaCl2, 1 MgCl2, 10 Glucose, 10 HEPES (pH 7.4, NaOH) at room temperature. Borosilicate patch pipettes had tip resistances of 2-4 Mohms when filled with an internal solution containing 130 KCl, 1 MgCl2, 1 CaCl2, 10 EGTA, 10 HEPES, 5 ATP-K2 (pH 7.2, KOH). The cells were clamped at −80 mV in whole cell configuration using an Axopatch 200B (Axon instruments, Union City, Calif.) patch clamp amplifier controlled by pClamp (Axon instruments) software. Upon formation of a gigaseal, the following voltage protocol was repeatedly (0.05 Hz) applied to record tail currents: depolarization step from −80 mV to +20 mV for 2 seconds followed by a hyperpolarization step to −65 mV (3 seconds) to elicit tail currents and then, back to the holding potential. […] First, tail currents were recorded in presence of extracellular solution alone (control) and subsequently, in extracellular solution containing increasing compound concentrations. […] The percentage inhibition at each concentration was calculated as reduction in peak tail current with respect to the peak tail current recorded in the presence of control solution. […]

[5] = tested on: mice; assay: Mouse forced swim test (mFST); assay type: in vivo; settings: 1 mg/Kg i.v., 15 min before 6 min swim session
Protocol: Forced Swim Test (FST) is an animal model used to assess antidepressant compounds in preclinical studies. The FST was performed similar to the method of Porsolt et al. with modifications (Porsolt R D, Bertin A, Jalfre M. Behavioral despair in mice: a primary screening test for antidepressants. Arch Int Pharmacodyn Thér 1977; 229:327-36). In this paradigm, mice are forced to swim in an inescapable cylinder filled with water. Under these conditions, mice will initially try to escape and eventually develop immobility behavior; this behavior is interpreted as a passive stress-coping strategy or depression-like behavior. Swim tanks were positioned inside a box made of plastic. Each tank was separated from each other by opaque plastic sheets to the height of cylinders. Three mice were subjected to test at a time. Swim sessions were conducted for 6 min by placing mice in individual glass cylinders (46 cm height×20 cm diameter) containing water (20-cm deep, maintained at 24-25° C.). […] The duration of immobility was evaluated during the total 6 min of the test and expressed as duration (sec) of immobility. […] For NCE testing: Test compound was administered in mice 15 min before swim session by i.v. route and immobility time was recorded for next 6 min. […] The NR2B receptor occupancy was determined as reported above and was determined to be 73%. […] The NR2B receptor occupancy was determined to be 79%.

[6] = Drug levels in plasma and brain after mouse forced swim test; assay type: in vivo; settings: iv, mice, 1 mg/Kg i.v., at the end of FST
Protocol: Forced Swim Test (FST) is an animal model used to assess antidepressant compounds in preclinical studies. The FST was performed similar to the method of Porsolt et al. with modifications (Porsolt R D, Bertin A, Jalfre M. Behavioral despair in mice: a primary screening test for antidepressants. Arch Int Pharmacodyn Thér 1977; 229:327-36). In this paradigm, mice are forced to swim in an inescapable cylinder filled with water. Under these conditions, mice will initially try to escape and eventually develop immobility behavior; this behavior is interpreted as a passive stress-coping strategy or depression-like behavior. Swim tanks were positioned inside a box made of plastic. Each tank was separated from each other by opaque plastic sheets to the height of cylinders. Three mice were subjected to test at a time. Swim sessions were conducted for 6 min by placing mice in individual glass cylinders (46 cm height×20 cm diameter) containing water (20-cm deep, maintained at 24-25° C.). […] The duration of immobility was evaluated during the total 6 min of the test and expressed as duration (sec) of immobility. […] All testing sessions were recorded with a video camera (Sony Handicam, Model: DCR-HC38E; PAL) and scoring was done using the Forced Swim Scan, Version 2.0 software (Clever Systems Inc., Reston, Va., USA; see Hayashi E, Shimamura M, Kuratani K, Kinoshita M, Hara H. Automated experimental system capturing three behavioral components during murine forced swim test. Life Sci. 2011 Feb. 28; 88(9-10):411-7 and Yuan P, Tragon T, Xia M, Leclair C A, Skoumbourdis A P, Zheng W, Thomas C J, Huang R, Austin C P, Chen G, Guitart X. Phosphodiesterase 4 inhibitors enhance sexual pleasure-seeking activity in rodents. […] For NCE testing: Test compound was administered in mice 15 min before swim session by i.v. route and immobility time was recorded for next 6 min. […] The NR2B receptor occupancy was determined as reported above and was determined to be 73%. […] The NR2B receptor occupancy was determined to be 79%.

[7] = brain (homogenized forebrain tissue), read-out: drug levels in the homogonized brain tissue
[8] = plasma, read-out: Drug levels in the blood plasma
[9] = plasma, read-out: Drug levels in the plasma

## O=C1[C@H](N2CC[C@@H](c3ccc(O)cc3)[C@H](F)C2)CCN1Cc1ccc(C(F)F)cc1 (single isomer, unassigned) [example 6]
[1]
  Ki: 0.004 µM
[2]
  receptor occupancy at 3 mg/kg: 97%
  receptor occupancy at 1 mg/kg: 79%
[3]; [7]
  concentration at 15 min: 2200 nM
[3]; [8]
  concentration at 15 min: 1800 nM
[4]
  IC50: 13.5 µM
[5]
  immobility time: statistically significant decrease in immobility time
[6]; [9]
  concentration at 21 min: 360 nM

## O=C1[C@H](N2CCC(c3ccc(O)cc3)CC2)CCN1Cc1ccc(F)cc1 (single isomer, unassigned) [example 8]
[1]
  Ki: 0.0014 µM
[2]
  receptor occupancy at 3 mg/kg: 96%
[3]; [7]
  concentration at 15 min: 900 nM
[3]; [8]
  concentration at 15 min: 570 nM

## Cc1ccc(CN2CC[C@@H](N3CC[C@@H](c4ccc(O)cc4)[C@H](F)C3)C2=O)cc1 [example 1, (R)-3-((3S,4S)-3-fluoro-4-(4-hydroxyphenyl)piperidin-1-yl)-1-(4-methylbenzyl)pyrrolidin-2-one]
[2]
  receptor occupancy at 3 mg/kg: 95%
  receptor occupancy at 1 mg/kg: 73%
[3]; [7]
  concentration at 15 min: 1980 nM
[3]; [8]
  concentration at 15 min: 1110 nM
[4]
  IC50: 28 µM
[5]
  immobility time: statistically significant decrease in immobility time
[6]; brain, read-out: Drug levels in the brain
  concentration at 21 min: 749 nM
[6]; [9]
  concentration at 21 min: 268 nM
